ChEMBL document CHEMBL5154793, “Discovery of Thieno[2,3-d]pyrimidine-based KRAS G12D inhibitors as potential anticancer agents via combinatorial virtual screening” (Eur J Med Chem, 2022)

Columns and labels:
Type in all cases: functional, cell-based
SW1990 = test: Antiproliferative activity against human SW1990 cells harboring KRAS G12D mutant assessed as inhibition of cell viability after 24 hrs by MTT assay; conditions: SW1990, 24 h
CT26 = test: Antiproliferative activity against mouse CT26 cells harboring KRAS G12D mutant assessed as inhibition of cell viability after 24 hrs by MTT assay; conditions: CT26, 24 h
PANC-1 = test: Antiproliferative activity against human PANC1 cells harboring KRAS G12D mutant assessed as inhibition of cell viability after 24 hrs by MTT assay; conditions: PANC-1, 24 h
HeLa = test: Antiproliferative activity against human HeLa cells harboring wild type KRAS assessed as inhibition of cell viability after 24 hrs by MTT assay
NCI-H358 = test: Antiproliferative activity against human NCI-H358 cells harboring KRAS G12C mutant assessed as inhibition of cell viability after 24 hrs by MTT assay; conditions: NCI-H358, 24 h
HCT-116 = test: Antiproliferative activity against human HCT-116 cells harboring KRAS G13D mutant assessed as inhibition of cell viability after 24 hrs by MTT assay; conditions: HCT-116, 24 h

Row | Structure (SMILES) | IC50 (SW1990) [µM] | IC50 (CT26) [µM] | IC50 (PANC-1) [µM] | IC50 (HeLa) [µM] | IC50 (NCI-H358) [µM] | IC50 (HCT-116) [µM]
1 | Clc1ccc(Cl)c(-c2cc3c(N4CC5CCC(C4)N5)ncnc3s2)c1 | 7.7 | 6.5 | 4.3 | 11.3 | 10.1 | 15.9
2 | COc1ccc(F)c(-c2cc3c(N4CC5CCC(C4)N5)ncnc3s2)c1 | 10.2 | 9.8 | 7.9 |  |  | 
3 | COc1ccc(Cl)c(-c2cc3c(N4CC5CCC(C4)N5)ncnc3s2)c1 | 8 | 8.4 | 6.7 |  |  | 
4 | c1ccc(-c2cc3c(N4CC5CC(C4)N5)ncnc3s2)cc1 | 40.1 | 40.5 | 30.5 |  |  | 
5 | COc1cc(-c2cc3c(N4CC5CCC(C4)N5)ncnc3s2)cc(OC)c1OC | > 20 | 25 | > 20 |  |  | 
6 | COc1cc(-c2cc3c(N4CC5CCC(C4)N5)ncnc3s2)cc(C(F)(F)F)c1 | 5.8 | 7.2 | 7.7 | 10.5 | 4.5 | 8
7 | Fc1ccc(F)c(-c2cc3c(N4CC5CCC(C4)N5)ncnc3s2)c1 | 17.8 | 11.8 | 6.1 | > 40 | 21.5 | 27.3
8 | c1ccc(-c2cccc3ccccc23)c(-c2cc3c(N4CC5CCC(C4)N5)ncnc3s2)c1 | 7.7 | 12.4 | 2.8 | 11.5 |  | 7.9
9 | Clc1ccc(-c2cc3c(N4CC5CCC(C4)N5)ncnc3s2)cc1Cl | 12.1 | 7.1 | 7.5 | 12.5 | 9.4 | 9.9
10 | COc1cc(Cl)ccc1-c1cc2c(N3CC4CCC(C3)N4)ncnc2s1 | 9.2 | 7.2 | 6.8 | 7.7 | 9.4 | 4.9
11 | Fc1cc(-c2cc3c(N4CC5CCC(C4)N5)ncnc3s2)cc(C(F)(F)F)c1 | 7.2 | 14.7 | 12.9 |  |  | 
12 | COc1cccc(F)c1-c1cc2c(N3CC4CCC(C3)N4)ncnc2s1 | 18.8 | 17 | 15.2 |  |  | 
13 | Cc1ccc(-c2cc3c(N4CC5CCC(C4)N5)ncnc3s2)c(C)c1 | 5.9 | 13.4 | 10.1 |  |  | 
14 | FC(F)(F)c1ccc(-c2cc3c(N4CC5CCC(C4)N5)ncnc3s2)cc1 | 6.2 | 6.9 | 10.3 |  |  | 

The next lines start with the values.

Row | IC50 (SW1990) [µM] | IC50 (CT26) [µM] | IC50 (PANC-1) [µM] | IC50 (HeLa) [µM] | IC50 (NCI-H358) [µM] | IC50 (HCT-116) [µM] | Structure (SMILES)
15 | 13.3 | 14.1 | 10.2 |  |  |  | COc1ccc(-c2cc3c(N4CC5CCC(C4)N5)ncnc3s2)cc1F
16 | 4.2 | 9.7 | 9.4 |  |  |  | FC(F)(F)c1ccc(Cl)c(-c2cc3c(N4CC5CCC(C4)N5)ncnc3s2)c1
17 | 15.9 | 13 | 24.7 |  |  |  | Fc1cc(-c2cc3c(N4CC5CCC(C4)N5)ncnc3s2)ccc1Cl
18 | 4.9 | 5.7 | 4 | 8.5 | 9.4 | 9.7 | COc1ccc(Cl)cc1-c1cc2c(N3CC4CCC(C3)N4)ncnc2s1
19 | 15.8 | 13.8 | 11.4 |  |  |  | Cc1ccc(-c2cc3c(N4CC5CCC(C4)N5)ncnc3s2)c(Cl)c1
20 | 13.4 | 15.6 | 13 |  |  |  | Fc1ccc(-c2cc3c(N4CC5CCC(C4)N5)ncnc3s2)c(F)c1
21 | 7.7 | 6.5 | 5.3 | 8.8 | 9.1 | 8.2 | FC(F)(F)c1cc(Cl)cc(-c2cc3c(N4CC5CCC(C4)N5)ncnc3s2)c1
22 | 16.8 | 22.6 | > 20 |  |  |  | COc1ccc(F)cc1-c1cc2c(N3CC4CCC(C3)N4)ncnc2s1
23 | > 20 | > 20 | > 20 | > 20 | 0.2 | > 20 | C=CC(=O)N1CCN(c2ncnc3c(F)c(-c4c(O)cccc4F)c(Cl)cc23)CC1
24 | 8.7 | 4.4 | 16.8 |  |  |  | O=[N+]([O-])c1ccc(-c2cc3c(N4CC5CCC(C4)N5)ncnc3s2)cc1
